Measurements as given in BigSolDB 2.1.

CC(C)C[C@H](CN)CC(=O)O
solubility (mole fraction)
Details	in acetonitrile	in ethanol	in ethyl acetate	in isobutanol	in isopropanol	in methanol	in n-butanol	in n-propanol
278.15 K	0.000572	0.00115	0.00164	0.00126	9.1e-05	0.00112	0.00093	0.00109
283.15 K	0.000624	0.00149	0.00195	0.00136	0.000125	0.00153	0.00152	0.00144
288.15 K	0.000695	0.00188	0.00237	0.00146	0.000163	0.00198	0.00213	0.00185
293.15 K	0.00076	0.00235	0.00271	0.00159	0.000214	0.00242	0.00282	0.00241
298.15 K	0.000821	0.00272	0.00331	0.00173	0.000253	0.00273	0.00354	0.00277
303.15 K	0.000885	0.00321	0.00374	0.00184	0.000281	0.0033	0.00416	0.0032
308.15 K	0.000931	0.00369	0.00429	0.00194	0.000314	0.00399	0.00487	0.00368
313.15 K	0.000988	0.00424	0.00488	0.002	0.000362	0.00465	0.00551	0.00412
318.15 K	0.00106	0.00501	0.00547	0.00209	0.000419	0.00542	0.00619	0.00466
323.15 K	0.00113	0.00575	0.00589	0.00219	0.000461	0.00602	0.00677	0.00501
328.15 K	0.00118	0.00634	0.00631	0.00226	0.000513	0.00671	0.00731	0.00542
333.15 K	0.00123	0.00711	0.00674	0.00234	0.000585	0.00753	0.00793	0.00603
